Measurements as given in patent US8981112B2, “Inhibitors of β-secretase” (Boehringer Ingelheim International GmbH, priority 2012, dated 2015).
Like-named read-outs stand apart in the source and are kept apart here.

Columns and labels:
[1] = test system: production of Abeta1-x peptides in H4 neuroglioma cell line stably expressing human APP; assay: H4-APPwt Cell-Based Assay (Assay 2), Abeta1-x production
Description: H4-APPwt Cell-Based Assay (Assay 2)
Cellular potency of the compounds of the invention was assessed in an assay monitoring production of Abeta1-x peptides in the H4 neuroglioma cell line (ATCC, Cat. #HTB-148) stably expressing human APP, using an immunoassay such as AlphaLISA (PerkinElmer, Cat.# AL288). Tested compounds were dissolved in DMSO and pre-diluted in the culture medium (DMEM containing 10% FBS and 1% penicillin/streptomycin) to achieve twice the final concentration of the compounds in the assay. Equal volumes of the 2× solutions of the tested compounds and cell suspension were added to a 96-well culture plate, so that each well contained ˜10,000 cells in a final volume of 200 μl. Final concentration of DMSO in the assay was 0.2%. The plates were incubated for 5 hrs at 37° C., 5% CO2 to allow cells to attach to the bottom of the wells in the presence of the tested compounds. Then the media was removed and replaced with fresh media containing tested compounds at the same final concentration. The plates were incubated for 18 hrs at 37° C., 5% CO2. Concentrations of Ab1-x were determined using AlphaLISA immunoassay (PerkinElmer, Cat.# AL288) following manufacturer's protocol. Concentrations of Abeta1-x in the wells containing either DMSO or 10 μM beta-secretase inhibitor (BACE inhibitor IV, EMD Bioscience, Cat. #565788) were used as uninhibited and background controls, correspondingly, for calculating percent inhibition values for each well with the tested compounds.

[2] = In Vitro Phospholipidosis Assay (Assay 4), Nile red staining; assay type: cell-based; conditions: human, first effect concentration, U937 cells, read-out: Phospholipidosis FEC IC50 μM (assay 4)
Description: In Vitro Phospholipidosis Assay (Assay 4)
The phospholipidogenic potential of test compounds was assayed using the human hematopoetic U937 cell line. The test principle was to analyze the phospholipid content by staining the cells with the fluorescent dye Nile red.
U937 cells were seeded into cell culture plates at 0.5×10^6 cells/mL in RPMI medium containing 10% FBS, 1% DMSO, and 0.005% gentamicin. The cells were then cultivated with or without different concentrations of test compounds for 48 h under standard culture conditions.
For harvesting the cells were centrifuged at 130×g for 4 min and washed once with PBS. Then 2×0.5 mL cell suspension was prepared for non-fixed cell measurement (0.5 mL for propidium iodide (PI) viability measurement and 0.5 mL for Nile red measurement).
The remaining cells were fixed with 3.7% formaldehyde for 30 min. After a further centrifugation step cells were resuspended with 1.3 mL Nile red working solution (1 μg/mL) and incubated for 5 min at rt. The cell suspension was then washed twice with 3 mL PBS and centrifuged with 130×g for 4 min. The supernatant was discarded and the cells were resuspended with 0.5 mL PBS and kept for flow cytometry measurement. For Nile red staining of the 0.5 mL non-fixed cell samples, 50 μL of a ready to use Nile red solution (10 μg/mL) were added per sample. Samples were kept on ice for 5 min. Thereafter, they were washed once with 4 mL PBS (4° C., 250×g for 8 min) and finally resuspended in 400 μL PBS and kept for flow cytometry measurement.
For the viability measurement, 12.5 μL of the ready to use PI solution (10 μg/mL) were added to the 0.5 mL non-fixed cell suspension. After 15 min of incubation on ice, the samples were measured by flow cytometry using a Coulter Epics XL/MCL flow cytometer.
The viability of the cells of each sample was determined by flow cytometry measurement of the PI content at channel 2 (568-590 nm). Cut-off gates for the fluorescence-dependent differentiation between live and dead cells were defined based on the analysis of cell culture medium control samples.
Only samples with a cell viability of >=90% relative to control samples were analyzed for phospholipidosis. For that, each Nile red sample (non-fixed and fixed samples) was measured by flow cytometry at channel 1 (504-541 nm) and channel 4 (660-680 nm).
For each channel, relative Nile red fluorescence intensity of a test sample was calculated compared to control samples and expressed as percentage of control fluorescence intensity. The assessment of the phospholipidogenic potential and the first effect concentration (FEC) of a test compound was done manually based on the fluorescence intensities at both wavelengths for the fixed cells as well as for the non-fixed cells.

hERG = hERG (Homo sapiens (Human), UniProt Q12809); assay: hERG-Channel Assay (Assay 3), whole-cell patch clamp; assay type: cell-based; conditions: for inhibition at 10 µM: human, HEK293 cells stably transfected with hERG, pH 7.4, HEK293 cells transfected with hERG
Text: hERG-Channel Assay (Assay 3)
HEK (human embryonic kidney) 293 cells were stably transfected with hERG cDNA.
Cells were superfused with a bath solution containing (mM): NaCl (137), KCl (4.0), MgCl2 (1.0), CaCl2 (1.8), Glucose (10), HEPES (10), pH 7.4 with NaOH. Patch pipettes were made from borosilicate glass tubing using a horizontal puller and filled with pipette solution containing (mM): K-aspartate (130), MgCl2 (5.0), EGTA (5.0), K2ATP (4.0), HEPES (10.0), pH 7.2 with KOH. Resistance of the microelectrodes was in the range between 2 and 5 MΩ.
Membrane currents were recorded using an EPC-10 patch clamp amplifier and PatchMaster software. hERG-mediated membrane currents were recorded at 35° C., using the whole-cell configuration of the patch-clamp technique. Transfected HEK293 cells were clamped at a holding potential of −60 mV and hERG-mediated inactivating tail currents were elicited using a pulse pattern with fixed amplitudes (activation/inactivation: 40 mV for 2000 ms; recovery: −120 mV for 2 ms; ramp to 40 mV in 2 ms; inactivating tail current: 40 mV for 50 ms) repeated at 15 s intervals. During each inter-pulse interval 4 pulses scaled down by a factor of 0.2 were recorded for a P/n leak subtraction procedure. Rs compensation was employed up to a level that safely allowed recording devoid of ringing.
The different concentrations of the test compound were applied sequentially on each of the different cells investigated. A steady state level of baseline current was measured for at least 6 sweeps prior to the application of the first test compound concentration.
The test compound was dissolved in DMSO to yield a master stock solution which was diluted further in DMSO to stock solutions needed for the lower concentrations. Final dilutions in extracellular buffer were prepared freshly from these stocks by a 1:1000 dilution step each before starting the experiments.
Peak current amplitudes were measured 3 ms after the ramp to +40 mV. For baseline and each concentration the peak currents of the three last sweeps before application of the next concentration were averaged. Residual currents (I/I0) were calculated for each cell as the fraction of actual average peak current and average baseline peak current. Results are presented as percent (%) inhibition (1−I/I0)*100% at 10 μM.

[3] = molecular target: truncated human beta-secretase, BACE1 (amino acids 1-454) (Homo sapiens (Human), UniProt P56817); assay: BACE1 Assay (Assay 1), fluorescence quench assay; assay type: biochemical
Description: The substrate was dissolved at 1 mg/ml in DMSO.
The assay was performed in the presence of OptiMEM (supernatant collected over 24 h and cleared from cellular debris by centrifugation) containing the ectodomain of BACE1, 25 μl water containing the desired 2-fold concentration of test compound and 2% DMSO, 1 μM substrate peptide, 20 mM NaOAc, pH 4.4, and 0.04% Triton-X100 in a total assay volume of 50 μl in a 384 well plate. In general, 25 μl of compound dilution were given to the plate followed by the addition of 10 μl of BACE1 containing OptiMEM™ diluted 1:10 in water with 0.2% Triton X-100. The reaction was started with the addition of 15 μl substrate in NaOAc buffer. The reaction was incubated at rt (dark) in an Envision® multilabel reader (Perkin Elmer) and the cleavage of the substrate was recorded as kinetic for 60 min at ex: 485 nm, em: 538 nm. Blank wells containing no enzyme were included on each plate.
The intensity of fluorescence was regressed against time in order to derive velocities of reaction in all 384 wells. These velocities were used for calculating percent control using an uninhibited control containing 1% DMSO as 100% and blank control performed in the absence of enzyme as 0%. IC50 values were calculated by fitting percent control vs. test compound concentration using Assay Explorer.

[4] = H4 neuroglioma cells expressing human APP, Abeta1-x, read-out: H4-APPwt cell IC50 nM (assay 2)
[5] = read-out: BACE1 IC50 nM (assay 1)
[6] = Homo sapiens, Table 2 comparison examples, read-out: H4-Cell assay (assay 2)
[7] = Table 2 comparison examples, read-out: BACE IC50 (assay 1)

hERG, sequence (Q12809 whole entry): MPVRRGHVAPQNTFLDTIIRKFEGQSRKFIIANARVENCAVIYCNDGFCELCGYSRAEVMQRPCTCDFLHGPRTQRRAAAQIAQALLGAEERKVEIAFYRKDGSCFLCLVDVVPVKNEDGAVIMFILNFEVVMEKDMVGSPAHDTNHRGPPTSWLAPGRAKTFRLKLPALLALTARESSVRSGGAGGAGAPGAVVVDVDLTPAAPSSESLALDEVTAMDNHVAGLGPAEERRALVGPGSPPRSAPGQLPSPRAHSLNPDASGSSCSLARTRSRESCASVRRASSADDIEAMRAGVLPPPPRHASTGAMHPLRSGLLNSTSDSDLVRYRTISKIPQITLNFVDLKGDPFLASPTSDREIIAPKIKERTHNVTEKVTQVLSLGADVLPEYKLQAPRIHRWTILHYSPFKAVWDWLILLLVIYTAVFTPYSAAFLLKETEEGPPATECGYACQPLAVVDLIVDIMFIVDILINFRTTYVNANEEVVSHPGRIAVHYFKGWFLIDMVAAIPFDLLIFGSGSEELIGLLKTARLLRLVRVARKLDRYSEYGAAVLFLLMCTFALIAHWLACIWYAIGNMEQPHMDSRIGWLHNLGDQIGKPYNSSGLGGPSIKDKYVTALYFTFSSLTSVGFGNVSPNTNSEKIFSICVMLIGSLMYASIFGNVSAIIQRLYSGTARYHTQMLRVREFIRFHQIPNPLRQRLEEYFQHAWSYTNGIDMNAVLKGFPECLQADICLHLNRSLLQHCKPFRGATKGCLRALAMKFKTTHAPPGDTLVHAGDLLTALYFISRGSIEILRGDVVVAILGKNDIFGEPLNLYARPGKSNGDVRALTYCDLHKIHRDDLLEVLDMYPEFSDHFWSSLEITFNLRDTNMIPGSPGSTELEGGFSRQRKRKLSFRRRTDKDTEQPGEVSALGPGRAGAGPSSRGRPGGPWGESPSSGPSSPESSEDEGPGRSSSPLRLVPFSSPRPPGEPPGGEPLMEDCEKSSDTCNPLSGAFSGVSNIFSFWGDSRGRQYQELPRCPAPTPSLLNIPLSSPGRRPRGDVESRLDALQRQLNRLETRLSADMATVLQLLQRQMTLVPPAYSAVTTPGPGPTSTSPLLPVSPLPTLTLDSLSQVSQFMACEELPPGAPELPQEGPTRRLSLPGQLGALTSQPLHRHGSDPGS
truncated human beta-secretase, BACE1 (amino acids 1-454), sequence (P56817 22-454): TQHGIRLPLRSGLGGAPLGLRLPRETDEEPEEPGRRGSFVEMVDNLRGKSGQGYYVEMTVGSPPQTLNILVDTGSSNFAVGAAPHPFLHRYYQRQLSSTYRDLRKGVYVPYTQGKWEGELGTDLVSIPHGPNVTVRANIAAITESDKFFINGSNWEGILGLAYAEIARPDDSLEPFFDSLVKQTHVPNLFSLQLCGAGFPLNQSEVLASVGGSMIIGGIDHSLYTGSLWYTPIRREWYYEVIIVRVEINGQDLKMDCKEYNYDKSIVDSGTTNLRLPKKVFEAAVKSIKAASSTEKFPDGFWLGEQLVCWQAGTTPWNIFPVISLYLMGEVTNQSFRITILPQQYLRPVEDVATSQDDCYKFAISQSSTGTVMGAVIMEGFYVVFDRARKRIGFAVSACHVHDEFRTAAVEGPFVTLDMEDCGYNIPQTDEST

| IC50 [1, 4] [nM] | IC50 [3, 5] [nM] | IC50 [1, 6] [nM] | IC50 [3, 7] [nM] | SMILES | IC50 at 48 h [2] [µM] | inhibition at 10 µM (hERG) [%] | hERG (assay 3) (hERG; at 10 μM, Table 2 comparison examples) |
| --- | --- | --- | --- | --- | --- | --- | --- |
| 0.95 | 6 | – | – | CO[C@H]1CC[C@@]2(Cc3ccc(C#N)cc3[C@]23N=C(N)N(CC2COCCO2)C3=O)C[C@@H]1C (some centres unmarked) [Example 27] | > 200 | 19 | – |
| 0.2 | 11 | – | – | CO[C@H]1[C@H](C)C[C@@]2(Cc3ccc(C#N)cc3[C@]23N=C(N)N(CC2CCOCC2)C3=O)C[C@@H]1C [Example 16] | 200 | 6 | – |
| 1.12 | 9 | – | – | CO[C@H]1[C@H](C)C[C@@]2(Cc3ccc(C#N)cc3[C@]23N=C(N)N(Cc2ncc(F)cn2)C3=O)C[C@@H]1C [Example 10] | 200 | 38 | – |
| 0.4 | 6 | – | – | CO[C@H]1[C@H](C)C[C@@]2(Cc3ccc(C#N)cc3[C@]23N=C(N)N(CCC2COC2)C3=O)C[C@@H]1C [Example 19] | 400 | 8 | – |
| 0.35 | 4 | – | – | CO[C@H]1[C@H](C)C[C@@]2(Cc3ccc(C#N)cc3[C@]23N=C(N)N(CC2(C)COC2)C3=O)C[C@@H]1C [Example 11] | > 400 | 6 | – |
| 0.65 | 5 | – | – | CO[C@H]1[C@H](C)C[C@@]2(Cc3ccc(C#N)cc3[C@]23N=C(N)N(Cc2ccncn2)C3=O)C[C@@H]1C [Example 24] | 200 | 23 | – |
| 0.99 | – | – | – | CO[C@H]1[C@H](C)C[C@@]2(Cc3ccc(F)cc3[C@]23N=C(N)N(C[C@@H]2CCOC2)C3=O)C[C@@H]1C [Example 25] | 200 | 10 | – |

Continued, molecule first:

| SMILES | IC50 [1, 4] [nM] | IC50 [3, 5] [nM] | IC50 [1, 6] [nM] | IC50 [3, 7] [nM] | IC50 at 48 h [2] [µM] | inhibition at 10 µM (hERG) [%] | hERG (assay 3) (hERG; at 10 μM, Table 2 comparison examples) |
| --- | --- | --- | --- | --- | --- | --- | --- |
| COC1CCC2(CC1)Cc1ccc(C#N)cc1C21N=C(N)N(C(C)C)C1=O (centres unmarked) [Comparison example drawing 17, reference compound] | – | – | 16 | 107 | – | – | – |
| CC[C@@H]1C[C@]2(CC[C@H]1OC)Cc1ccc(C#N)cc1[C@]21N=C(N)N(Cc2ncccn2)C1=O [Example 1] | 0.76 | 11 | – | – | 200 | 8 | – |
| COCCN1C(=O)C2(N=C1N)c1cc(C#N)ccc1C[C@]21CC[C@@H](OC)CC1 (some centres unmarked) [Comparison example drawing 14, reference compound] | – | – | 16 | 49 | – | – | – |
| CC[C@H]1C[C@@]2(CC[C@@H]1OC)Cc1ccc(C#N)cc1[C@]21N=C(N)N(C[C@H]2CCCO2)C1=O [Example 5] | 0.9 | – | – | – | 200 | 7 | – |
| COC1CCC2(CC1)Cc1ccc(C#N)cc1C21N=C(N)N(CC2CCCO2)C1=O (centres unmarked) [Comparison example drawing 11, reference compound] | – | – | 7 | – | – | – | hERG (assay 3) 16% at 10 μM |
| CO[C@H]1CC[C@]2(CC1)Cc1ccc(CCC3CC3)cc1[C@]21N=C(N)N(C[C@@H]2CCO2)C1=O [Comparison example drawing 20, reference compound] | – | – | 16 | 415 | – | – | – |
| COCCN1C(=O)[C@]2(N=C1N)c1cc(C#N)ccc1C[C@@]21CC[C@H](OC)[C@@H](C)C1 [Example 7] | 1.42 | 2 | – | – | 400 | 8 | – |
| CC[C@@H]1C[C@]2(CC[C@H]1OC)Cc1ccc(C#N)cc1[C@]21N=C(N)N(CC(C)(C)F)C1=O [Example 3] | 0.57 | 10 | – | – | > 200 | 9 | – |
